Experimental data published in article doi:10.1101/2020.01.23.916502v1 (biorxiv, 2020).

Tests used:
Assay in all cases: NanoBRET tracer displacement in live HEK293T cells
Assay type in all cases: cell-based
PNCK = PNCK (Homo sapiens, UniProt Q6P2M8)
JAK1 = JAK1 (Homo sapiens, UniProt P23458)
DDR1 = DDR1 (Homo sapiens, UniProt Q08345)
MAPK9 = MAPK9 (Homo sapiens, UniProt P45984)
PIK3CA = PIK3CA (Homo sapiens, UniProt P42336)
PIK3CA, sequence (P42336 whole entry): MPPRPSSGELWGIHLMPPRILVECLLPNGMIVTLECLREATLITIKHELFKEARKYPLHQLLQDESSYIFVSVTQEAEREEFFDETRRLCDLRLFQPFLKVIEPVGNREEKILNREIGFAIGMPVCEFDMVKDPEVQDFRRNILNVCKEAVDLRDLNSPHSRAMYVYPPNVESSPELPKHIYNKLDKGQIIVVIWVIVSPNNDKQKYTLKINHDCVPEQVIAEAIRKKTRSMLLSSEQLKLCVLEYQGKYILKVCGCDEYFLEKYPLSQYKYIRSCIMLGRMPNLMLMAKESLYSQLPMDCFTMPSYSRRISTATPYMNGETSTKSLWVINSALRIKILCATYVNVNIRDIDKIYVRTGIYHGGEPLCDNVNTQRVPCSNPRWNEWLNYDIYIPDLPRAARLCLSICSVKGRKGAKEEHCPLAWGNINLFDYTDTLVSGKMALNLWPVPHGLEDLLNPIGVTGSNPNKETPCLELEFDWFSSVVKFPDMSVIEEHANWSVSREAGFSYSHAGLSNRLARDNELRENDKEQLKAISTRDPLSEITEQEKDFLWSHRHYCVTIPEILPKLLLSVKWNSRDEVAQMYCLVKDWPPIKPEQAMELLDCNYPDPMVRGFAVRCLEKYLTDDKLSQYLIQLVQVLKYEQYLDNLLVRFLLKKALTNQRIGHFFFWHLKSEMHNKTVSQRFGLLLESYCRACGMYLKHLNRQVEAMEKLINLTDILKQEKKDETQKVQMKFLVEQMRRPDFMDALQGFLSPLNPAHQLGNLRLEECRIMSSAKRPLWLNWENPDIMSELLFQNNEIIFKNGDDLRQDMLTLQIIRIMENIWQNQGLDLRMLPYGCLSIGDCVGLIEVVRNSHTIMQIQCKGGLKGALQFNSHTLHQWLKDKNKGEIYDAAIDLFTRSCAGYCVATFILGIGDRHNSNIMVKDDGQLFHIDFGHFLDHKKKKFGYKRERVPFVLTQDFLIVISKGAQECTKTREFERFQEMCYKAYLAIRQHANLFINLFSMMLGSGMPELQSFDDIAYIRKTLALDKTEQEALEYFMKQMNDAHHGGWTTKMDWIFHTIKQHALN

MAPK9, sequence (P45984 whole entry): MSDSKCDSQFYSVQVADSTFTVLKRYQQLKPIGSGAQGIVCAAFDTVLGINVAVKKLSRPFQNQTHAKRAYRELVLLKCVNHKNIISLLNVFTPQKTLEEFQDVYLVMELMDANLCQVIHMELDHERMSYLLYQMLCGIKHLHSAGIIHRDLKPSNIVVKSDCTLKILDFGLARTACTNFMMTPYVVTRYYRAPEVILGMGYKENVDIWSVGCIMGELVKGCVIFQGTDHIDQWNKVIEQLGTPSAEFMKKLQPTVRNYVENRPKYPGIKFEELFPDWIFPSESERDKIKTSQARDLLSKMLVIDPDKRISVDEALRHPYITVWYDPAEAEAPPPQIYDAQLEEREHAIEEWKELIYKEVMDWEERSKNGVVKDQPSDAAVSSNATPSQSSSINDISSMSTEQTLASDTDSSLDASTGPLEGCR
JAK1, sequence (P23458 whole entry): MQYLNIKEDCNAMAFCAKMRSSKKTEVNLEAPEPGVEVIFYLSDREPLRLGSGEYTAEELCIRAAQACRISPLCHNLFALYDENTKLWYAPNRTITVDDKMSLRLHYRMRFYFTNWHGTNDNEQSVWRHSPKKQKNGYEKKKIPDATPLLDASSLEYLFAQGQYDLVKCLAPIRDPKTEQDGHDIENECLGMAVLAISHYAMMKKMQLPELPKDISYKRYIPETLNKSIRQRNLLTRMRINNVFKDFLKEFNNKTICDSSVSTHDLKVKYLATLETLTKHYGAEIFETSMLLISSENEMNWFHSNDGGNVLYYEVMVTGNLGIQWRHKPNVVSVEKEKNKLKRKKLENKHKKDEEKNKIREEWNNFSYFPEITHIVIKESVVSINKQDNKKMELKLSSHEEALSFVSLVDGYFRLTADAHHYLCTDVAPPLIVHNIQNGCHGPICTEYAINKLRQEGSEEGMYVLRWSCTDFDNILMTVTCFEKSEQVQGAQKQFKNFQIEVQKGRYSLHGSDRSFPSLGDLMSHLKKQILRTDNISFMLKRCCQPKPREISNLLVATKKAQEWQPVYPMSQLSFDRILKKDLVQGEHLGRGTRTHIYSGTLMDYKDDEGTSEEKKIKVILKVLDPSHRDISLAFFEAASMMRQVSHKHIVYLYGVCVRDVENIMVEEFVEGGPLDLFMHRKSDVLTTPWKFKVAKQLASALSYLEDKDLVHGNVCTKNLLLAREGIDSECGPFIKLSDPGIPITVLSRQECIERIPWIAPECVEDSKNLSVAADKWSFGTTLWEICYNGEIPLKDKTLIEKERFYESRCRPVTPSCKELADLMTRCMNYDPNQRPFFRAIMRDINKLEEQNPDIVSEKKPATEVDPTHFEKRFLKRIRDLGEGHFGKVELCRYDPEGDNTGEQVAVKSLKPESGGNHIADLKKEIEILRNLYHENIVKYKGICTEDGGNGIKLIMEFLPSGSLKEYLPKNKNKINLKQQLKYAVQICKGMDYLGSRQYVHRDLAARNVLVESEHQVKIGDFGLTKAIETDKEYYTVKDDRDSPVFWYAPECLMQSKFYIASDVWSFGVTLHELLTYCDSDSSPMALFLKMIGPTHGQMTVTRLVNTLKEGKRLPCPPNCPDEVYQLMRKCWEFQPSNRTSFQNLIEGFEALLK
DDR1, sequence (Q08345 19-913): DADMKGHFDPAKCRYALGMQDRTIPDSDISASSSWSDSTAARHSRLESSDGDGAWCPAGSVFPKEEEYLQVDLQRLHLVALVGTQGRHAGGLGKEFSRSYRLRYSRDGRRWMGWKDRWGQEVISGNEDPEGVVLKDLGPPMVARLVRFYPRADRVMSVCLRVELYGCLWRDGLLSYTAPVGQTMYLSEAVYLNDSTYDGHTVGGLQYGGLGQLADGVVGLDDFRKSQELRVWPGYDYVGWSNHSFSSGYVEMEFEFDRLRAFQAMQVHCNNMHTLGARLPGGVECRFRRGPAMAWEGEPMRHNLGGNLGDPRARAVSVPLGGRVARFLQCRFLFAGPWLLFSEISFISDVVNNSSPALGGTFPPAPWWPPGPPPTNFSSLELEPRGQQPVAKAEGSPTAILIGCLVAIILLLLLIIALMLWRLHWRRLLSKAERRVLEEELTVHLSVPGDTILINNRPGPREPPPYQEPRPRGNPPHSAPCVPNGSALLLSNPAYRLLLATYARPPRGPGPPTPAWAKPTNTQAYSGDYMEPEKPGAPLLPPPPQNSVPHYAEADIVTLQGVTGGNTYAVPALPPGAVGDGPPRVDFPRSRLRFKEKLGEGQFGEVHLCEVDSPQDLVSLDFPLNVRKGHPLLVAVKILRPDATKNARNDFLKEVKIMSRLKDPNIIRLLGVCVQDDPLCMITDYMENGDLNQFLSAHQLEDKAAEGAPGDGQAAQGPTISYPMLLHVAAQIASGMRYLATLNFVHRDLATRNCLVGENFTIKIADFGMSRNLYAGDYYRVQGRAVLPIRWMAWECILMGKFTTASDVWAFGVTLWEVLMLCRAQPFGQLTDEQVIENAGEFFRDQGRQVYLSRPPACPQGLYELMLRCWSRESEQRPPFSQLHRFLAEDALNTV
PNCK, sequence (Q6P2M8 whole entry): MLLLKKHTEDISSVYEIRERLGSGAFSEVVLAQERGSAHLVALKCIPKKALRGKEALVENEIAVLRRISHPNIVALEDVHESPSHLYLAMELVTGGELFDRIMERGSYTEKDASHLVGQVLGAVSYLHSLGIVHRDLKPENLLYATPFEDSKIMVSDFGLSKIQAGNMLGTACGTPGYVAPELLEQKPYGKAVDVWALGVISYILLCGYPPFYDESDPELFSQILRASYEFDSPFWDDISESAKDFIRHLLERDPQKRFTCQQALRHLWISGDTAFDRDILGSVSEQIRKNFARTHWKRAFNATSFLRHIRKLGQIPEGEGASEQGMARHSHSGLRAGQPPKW

| IC50 (PNCK) [µM] | IC50 (JAK1) [µM] | IC50 (DDR1) [µM] | IC50 (MAPK9) [µM] | IC50 (PIK3CA) [µM] | SMILES |
| --- | --- | --- | --- | --- | --- |
| > 20 | > 20 | > 20 | > 20 | > 20 | Cc1ccc2c(c1)n(CC(N)=O)c(=O)n2-c1cc(-c2cc(Cl)ccc2F)ncc1C [compound 16, THAI14] |
| > 20 | > 20 | > 20 | > 20 | > 20 | Cc1cnc(-c2cc(Cl)ccc2F)cc1-n1c(=O)n(CC(N)=O)c2ccccc21 [compound 15, THAI11] |
